Toxic doses and inconclusive results are not listed. Rule for the calls: active = survival T/C of 150% or more; inactive = T/C below 125% in these data.
Test system: CD2F1 mice, L1210 leukemia ip, survival T/C
Assay: NCI In Vivo Anticancer Drug Screen. Data for tumor model L1210 Leukemia (intraperitoneal) in CD2F1 (CDF1) mice
Details: higher = longer survival
Outline: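 Activity against a transplanted murine tumor was judged by comparing the compound group with a vehicle group. The outcome in the treated animals was divided by that in the controls.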

[1] = endpoint: mean survival time, dose: 100.0 mg/kg/injection, schedule: Q04DX002 (ip), vehicle: saline with Tween-80
[2] = endpoint: mean survival time, dose: 200.0 mg/kg/injection, schedule: Q04DX002 (ip), vehicle: saline with Tween-80
[3] = endpoint: mean survival time, dose: 400.0 mg/kg/injection, schedule: Q04DX002 (ip), vehicle: saline with Tween-80
[4] = endpoint: mean survival time, dose: 75.0 mg/kg/injection, schedule: Q01DX001 (ip), vehicle: saline
[5] = endpoint: mean survival time, dose: 50.0 mg/kg/injection, schedule: Q01DX009 (ip), vehicle: saline with Tween-80
[6] = endpoint: mean survival time, dose: 100.0 mg/kg/injection, schedule: Q01DX009 (ip), vehicle: saline with Tween-80
[7] = endpoint: mean survival time, dose: 200.0 mg/kg/injection, schedule: Q01DX009 (ip), vehicle: saline with Tween-80
[8] = endpoint: mean survival time, dose: 100.0 mg/kg/injection, schedule: Q04DX003 (ip), vehicle: saline with Tween-80
[9] = endpoint: mean survival time, dose: 200.0 mg/kg/injection, schedule: Q04DX003 (ip), vehicle: saline with Tween-80
[10] = endpoint: mean survival time, dose: 400.0 mg/kg/injection, schedule: Q04DX003 (ip), vehicle: saline with Tween-80
[11] = endpoint: mean survival time, dose: 100.0 mg/kg/injection, schedule: Q04DX003 (ip), vehicle: saline
[12] = endpoint: mean survival time, dose: 400.0 mg/kg/injection, schedule: Q01DX009 (ip), vehicle: saline with Tween-80
[13] = endpoint: mean survival time, dose: 100.0 mg/kg/injection, schedule: Q01DX001 (ip), vehicle: saline with Tween-80
[14] = endpoint: mean survival time, dose: 200.0 mg/kg/injection, schedule: Q01DX001 (ip), vehicle: saline with Tween-80
[15] = endpoint: mean survival time, dose: 400.0 mg/kg/injection, schedule: Q01DX001 (ip), vehicle: saline with Tween-80
[16] = endpoint: mean survival time, dose: 100.0 mg/kg/injection, schedule: Q01DX001 (ip), vehicle: saline
[17] = endpoint: mean survival time, dose: 200.0 mg/kg/injection, schedule: Q01DX001 (ip), vehicle: saline
[18] = endpoint: mean survival time, dose: 400.0 mg/kg/injection, schedule: Q01DX001 (ip), vehicle: saline

Measured: T/C

O=C(Nc1ccccc1[N+](=O)[O-])OC/C=C/c1ccccc1
inactive: [1] 91 % of control | [2] 91 % of control | [3] 87 % of control

CN1CCN(CC(=O)N2c3ccccc3Sc3cc4ccccc4cc32)CC1
inactive: [4] 101 % of control | endpoint: mean survival time, dose: 150.0 mg/kg/injection, schedule: Q01DX001 (ip), vehicle: saline 108 % of control | endpoint: mean survival time, dose: 300.0 mg/kg/injection, schedule: Q01DX001 (ip), vehicle: saline 96 % of control

COc1ccc(-c2c(O)c3c(OC)cc(OC)cc3oc2=O)cc1
inactive: [5] 100 % of control | [6] 93 % of control | [7] 103 % of control

OC1=C2CCCCCC2=[N+]2CCCCC2C1 (stereo not given)
inactive: [8] 95 % of control | [9] 95 % of control

CCOC(=O)C(C)Sc1n[nH]c(=O)[nH]c1=O (stereo not given)
inactive: endpoint: mean survival time, dose: 12.5 mg/kg/injection, schedule: Q01DX005 (ip), vehicle: distilled water + Tween-80 96 % of control | endpoint: mean survival time, dose: 25.0 mg/kg/injection, schedule: Q01DX005 (ip), vehicle: distilled water + Tween-80 96 % of control | endpoint: mean survival time, dose: 50.0 mg/kg/injection, schedule: Q01DX005 (ip), vehicle: distilled water + Tween-80 96 % of control | endpoint: mean survival time, dose: 100.0 mg/kg/injection, schedule: Q01DX005 (ip), vehicle: distilled water + Tween-80 92 % of control | endpoint: mean survival time, dose: 200.0 mg/kg/injection, schedule: Q01DX005 (ip), vehicle: distilled water + Tween-80 94 % of control

Cn1ccc(=O)nc1
inactive: endpoint: mean survival time, dose: 100.0 mg/kg/injection, schedule: Q04DX003 (ip), vehicle: saline sonified 102 % of control | endpoint: mean survival time, dose: 200.0 mg/kg/injection, schedule: Q04DX003 (ip), vehicle: saline sonified 104 % of control | endpoint: mean survival time, dose: 400.0 mg/kg/injection, schedule: Q04DX003 (ip), vehicle: saline sonified 104 % of control

CCCc1nc(N)[nH]c(=O)c1CCCCc1ccccc1
inactive: [8] 88 % of control | [9] 94 % of control | [10] 93 % of control

CCOc1ccc(OCC)c(NC(=O)Nc2ccc(OC)cc2)c1
inactive: [1] 89 % of control | [2] 93 % of control | [3] 86 % of control

[Pt+4].[c-]1ccccc1C1CCCC[N-]1.[c-]1ccccc1C1CCCC[N-]1 (stereo not given)
inactive: endpoint: median survival time, dose: 3.12 mg/kg/injection, schedule: Q04DX003 (ip), vehicle: saline 107 % of control | endpoint: median survival time, dose: 6.25 mg/kg/injection, schedule: Q04DX003 (ip), vehicle: saline 107 % of control | endpoint: median survival time, dose: 12.5 mg/kg/injection, schedule: Q04DX003 (ip), vehicle: saline 103 % of control | endpoint: median survival time, dose: 25.0 mg/kg/injection, schedule: Q04DX003 (ip), vehicle: saline 103 % of control | endpoint: median survival time, dose: 50.0 mg/kg/injection, schedule: Q04DX003 (ip), vehicle: saline 107 % of control | endpoint: median survival time, dose: 100.0 mg/kg/injection, schedule: Q04DX003 (ip), vehicle: saline 103 % of control | endpoint: median survival time, dose: 200.0 mg/kg/injection, schedule: Q04DX003 (ip), vehicle: saline 103 % of control

COC12CCCC1S(=O)(=O)C2 (stereo not given)
inactive: endpoint: mean survival time, dose: 25.0 mg/kg/injection, schedule: Q04DX003 (ip), vehicle: saline 101 % of control | endpoint: mean survival time, dose: 50.0 mg/kg/injection, schedule: Q04DX003 (ip), vehicle: saline 108 % of control | [11] 95 % of control

CC1(C)CC2(OC2c2ccccc2[N+](=O)[O-])C(=O)c2ccccc21 (stereo not given)
inactive: [6] 98 % of control | [8] 96 % of control | [7] 96 % of control | [9] 98 % of control | [12] 96 % of control | [10] 91 % of control

COC(=O)COS(=O)(=O)c1ccc(C)cc1
inactive: [13] 95 % of control | [14] 96 % of control | [15] 100 % of control

CCOC(=O)c1c(O)c(=O)[nH]c2ccccc12
inactive: endpoint: mean survival time, dose: 100.0 mg/kg/injection, schedule: Q01DX005 (ip), vehicle: saline with Tween-80 106 % of control | endpoint: mean survival time, dose: 200.0 mg/kg/injection, schedule: Q01DX005 (ip), vehicle: saline with Tween-80 97 % of control | endpoint: mean survival time, dose: 400.0 mg/kg/injection, schedule: Q01DX005 (ip), vehicle: saline with Tween-80 97 % of control

CC(=O)Nc1ccc(S(=O)(=O)CBr)cc1
inactive: [16] 102 % of control | [17] 97 % of control | [18] 96 % of control

Cn1cc(NC(=O)c2cc(NC(=O)c3cc(NC=O)cn3C)cn2C)cc1C(=O)NCCC(=N)N
inactive: endpoint: mean survival time, dose: 100.0 mg/kg/injection, schedule: Q04DX003 (ip), vehicle: alcohol 108 % of control | endpoint: mean survival time, dose: 200.0 mg/kg/injection, schedule: Q04DX003 (ip), vehicle: alcohol 102 % of control | endpoint: median survival time, dose: 12.5 mg/kg/injection, schedule: Q01DX009 (ip), vehicle: water 104 % of control | endpoint: median survival time, dose: 25.0 mg/kg/injection, schedule: Q01DX009 (ip), vehicle: water 100 % of control | endpoint: median survival time, dose: 50.0 mg/kg/injection, schedule: Q01DX009 (ip), vehicle: water 103 % of control | endpoint: median survival time, dose: 100.0 mg/kg/injection, schedule: Q01DX009 (ip), vehicle: water 108 % of control

c1ccc2c(P(c3cccc4ccccc34)c3cccc4ccccc34)cccc2c1
inactive: [16] 100 % of control | [17] 93 % of control | [18] 89 % of control

O=C(O)CN(CCO)CCO
inactive: [11] 100 % of control | endpoint: mean survival time, dose: 200.0 mg/kg/injection, schedule: Q04DX003 (ip), vehicle: saline 102 % of control | endpoint: mean survival time, dose: 400.0 mg/kg/injection, schedule: Q04DX003 (ip), vehicle: saline 102 % of control

CCOC(=N)c1cn(C2OC(CO)C(O)C2O)c2nc[nH]c(=O)c12 (stereo not given)
inactive: [4] 119 % of control

Nc1cccc(Oc2ccc([N+](=O)[O-])cc2)c1
inactive: endpoint: mean survival time, dose: 100.0 mg/kg/injection, schedule: Q01DX001 (ip), vehicle: Klucel (hydroxypropylcellulose) (HPC) 97 % of control | endpoint: mean survival time, dose: 200.0 mg/kg/injection, schedule: Q01DX001 (ip), vehicle: Klucel (hydroxypropylcellulose) (HPC) 97 % of control

NC(=O)NC(=S)NC(=O)c1ccccc1
inactive: [6] 111 % of control | [8] 102 % of control | [7] 98 % of control | [9] 98 % of control | [12] 98 % of control | [10] 101 % of control

FC1CC=C(S)CC1 (stereo not given)
inactive: endpoint: mean survival time, dose: 5.0 mg/kg/injection, schedule: Q01DX001 (ip), vehicle: saline 100 % of control | endpoint: mean survival time, dose: 10.0 mg/kg/injection, schedule: Q01DX001 (ip), vehicle: saline 106 % of control | endpoint: mean survival time, dose: 20.0 mg/kg/injection, schedule: Q01DX001 (ip), vehicle: saline 103 % of control | endpoint: mean survival time, dose: 40.0 mg/kg/injection, schedule: Q01DX001 (ip), vehicle: saline 100 % of control | endpoint: mean survival time, dose: 80.0 mg/kg/injection, schedule: Q01DX001 (ip), vehicle: saline 102 % of control

Cc1cccc(OCC(=O)O)c1
inactive: [5] 97 % of control | [6] 95 % of control | [8] 95 % of control | [7] 90 % of control | [9] 93 % of control

Cc1ccc(S(=O)(=O)OC(c2ccc(Cl)cc2)C(F)(F)F)cc1 (stereo not given)
inactive: [13] 101 % of control | [6] 93 % of control | [14] 95 % of control | [7] 86 % of control | [15] 101 % of control | [12] 87 % of control

CC(=O)OC1CCCC2=CC(=O)CCC21C (stereo not given)
inactive: [8] 96 % of control | [9] 92 % of control

COc1ccc(C(C)=O)cc1C=O
inactive: [6] 87 % of control | [8] 97 % of control | [7] 92 % of control | [9] 104 % of control | [12] 90 % of control | [10] 102 % of control
